Measured values published in PubChem BioAssay AID1918930 (Molecular Pharmacology Branch, DTP, NCI, 2023).

System: 233499-124-R-J3-PDC complex spheroid viability, % test/control
Assay: Anticancer human tumor 233499-124-R-J3-PDC patient-derived colon adenocarcinoma cell line growth inhibition
Conditions: for IC50: curve of first compound; for viability, T/C: stronger effect = lower value; active = viability on the fitted dose curve at most 10% of control; inactive = the rest
In short: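 Drug combinations with the LSD1 inhibitor iadademstat tested on tumor cells co-cultured as spheroids with endothelial cells and mesenchymal stem cells. Concentrations descended in half-log increments from clinical Cmax or 10 microM.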

[1] = second compound 0.1 µM, first compound 0.0316 µM
[2] = second compound 0.1 µM, first compound 0.1 µM
[3] = second compound 0.1 µM, first compound 0.316 µM
[4] = second compound 0.1 µM, first compound 1 µM
[5] = second compound 0.316 µM, first compound 0.0316 µM
[6] = second compound 0.316 µM, first compound 0.1 µM
[7] = second compound 0.316 µM, first compound 0.316 µM
[8] = second compound 0.316 µM, first compound 1 µM
[9] = second compound 1 µM, first compound 0.0316 µM
[10] = second compound 1 µM, first compound 0.1 µM
[11] = second compound 1 µM, first compound 0.316 µM
[12] = second compound 1 µM, first compound 1 µM
[13] = second compound 3.16 µM, first compound 0.0316 µM
[14] = second compound 3.16 µM, first compound 0.1 µM
[15] = second compound 3.16 µM, first compound 0.316 µM
[16] = second compound 3.16 µM, first compound 1 µM
[17] = second compound 10 µM, first compound 0.0316 µM
[18] = second compound 10 µM, first compound 0.1 µM
[19] = second compound 10 µM, first compound 0.316 µM
[20] = second compound 10 µM, first compound 1 µM
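Also: spheroids exposed to agents for one week before readout.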

COc1ccc([C@@H](O)c2cc(-c3ncnc4cc(N5CCOCC5)ccc34)c(F)cc2Cl)nn1 + NC1CCC(NC2CC2c2ccccc2)CC1
2.79 µM: IC50 (second compound 10 µM)
inactive: viability, T/C [1] 102% | viability, T/C [2] 82.3% | viability, T/C [3] 86.9% | viability, T/C [4] 81.8% | viability, T/C (second compound 0.1 µM, first compound 3.16 µM) 62.4% | viability, T/C (second compound 0.1 µM, first compound 10 µM) 12.6% | viability, T/C [5] 102% | viability, T/C [6] 96.8% | viability, T/C [7] 86.7% | viability, T/C [8] 79.8% | viability, T/C (second compound 0.316 µM, first compound 3.16 µM) 58.4% | viability, T/C (second compound 0.316 µM, first compound 10 µM) 10.8% | viability, T/C [9] 94.4% | viability, T/C [10] 79.2% | viability, T/C [11] 64.7% | viability, T/C [12] 74.1% | viability, T/C (second compound 1 µM, first compound 3.16 µM) 64% | viability, T/C (second compound 1 µM, first compound 10 µM) 12.8% | viability, T/C [13] 85.4% | viability, T/C [14] 83.8% | viability, T/C [15] 75.2% | viability, T/C [16] 67.5% | viability, T/C (second compound 3.16 µM, first compound 3.16 µM) 65.3% | viability, T/C (second compound 3.16 µM, first compound 10 µM) 9.45% | viability, T/C [17] 92.6% | viability, T/C [18] 95.1% | viability, T/C [19] 63.1% | viability, T/C [20] 57.4% | viability, T/C (second compound 10 µM, first compound 3.16 µM) 65.9% | viability, T/C (second compound 10 µM, first compound 10 µM) 11.2%
4.02 µM: IC50 (second compound 1 µM) | IC50 (second compound 3.16 µM)
4.14 µM: IC50 (second compound 0.1 µM)
3.72 µM: IC50 (second compound 0.316 µM)

O=C(C=Cn1cnc(-c2cc(C(F)(F)F)cc(C(F)(F)F)c2)n1)NNc1cnccn1 + NC1CCC(NC2CC2c2ccccc2)CC1
0.102 µM: IC50 (second compound 0.1 µM)
0.144 µM: IC50 (second compound 0.316 µM)
inactive: viability, T/C (second compound 0.1 µM, first compound 0.00316 µM) 106% | viability, T/C (second compound 0.1 µM, first compound 0.01 µM) 102% | viability, T/C [1] 99.5% | viability, T/C [2] 49.5% | viability, T/C [3] 31.1% | viability, T/C [4] 19.8% | viability, T/C (second compound 0.316 µM, first compound 0.00316 µM) 119% | viability, T/C (second compound 0.316 µM, first compound 0.01 µM) 109% | viability, T/C [5] 97.4% | viability, T/C [6] 59.2% | viability, T/C [7] 28.2% | viability, T/C [8] 11.7% | viability, T/C (second compound 1 µM, first compound 0.00316 µM) 115% | viability, T/C (second compound 1 µM, first compound 0.01 µM) 106% | viability, T/C [9] 106% | viability, T/C [10] 40% | viability, T/C [11] 30.9% | viability, T/C [12] 12% | viability, T/C (second compound 3.16 µM, first compound 0.00316 µM) 99.3% | viability, T/C (second compound 3.16 µM, first compound 0.01 µM) 90.8% | viability, T/C [13] 91.8% | viability, T/C [14] 54.9% | viability, T/C [15] 27.8% | viability, T/C [16] 14.2% | viability, T/C (second compound 10 µM, first compound 0.00316 µM) 96.8% | viability, T/C (second compound 10 µM, first compound 0.01 µM) 97.3% | viability, T/C [17] 87.3% | viability, T/C [18] 43.2% | viability, T/C [19] 22% | viability, T/C [20] 15.8%
0.13 µM: IC50 (second compound 3.16 µM)
0.0846 µM: IC50 (second compound 1 µM) | IC50 (second compound 10 µM)
